The test system of assay [1] is xFANCD2-Ub (FANCD2 monoubiquitylation). In words: Xenopus cell-free FA pathway assay: DNA substrate-induced xFANCD2 monoubiquitylation (immunoblot, densitometry). The class given is biochemical, Xenopus laevis. The note with it: for activity against xFANCD2-Ub in Xenopus extracts: activated Xenopus extracts, serial dilutions up to 3000 μM; for IC50: plasmid-activated Xenopus extracts, Fig. 7B, read-out: xFANCD2-Ub inhibition IC50. As for the experimental part:
(§1) A series of monoketone analogs of curcumin [18] was evaluated in Xenopus egg extracts where DNA substrate-induced xFANCD2-Ub is used as a readout of FA pathway performance. Phosphorylation of MRE11 (MRE11-P), a member of the MRN DNA damage repair pathway was monitored to assess the cross-specificity of the compounds. For each compound, IC50 values were determined from serial dilution experiments and densitometry analysis of immunoblots.
(§2) IC50 values were determined using immunoblots of plasmid-activated extracts treated with a range of concentrations for each compound (0, 10, 25, 60, 150, 400, 1000, 3000 μM). A representative experiment is shown (out of 3 repeats). B) Structure of curcumin and monoketone analogs. […] Activated extracts were treated with 1 mM each compound and phosphorylation of RPA32 and H2AX monitored by immunoblot.
(§3) Preparation of Xenopus laevis low-speed extracts and the FA pathway assay were described previously.
(§4) Fitted curves were determined from experimental data using IgorPro. The concentration of compound that induces 50% inhibition of the measured endpoint (i.e. FANCD2 ubiquitylation, Mre11 phosphorylation and cell survival) was then plotted on the fitted curve.
In general terms: A western blot detects proteins with antibodies after separation by electrophoresis.

Assay [2] relates to proteasome. The assay is described as follows: Proteasome assay in Xenopus extracts, both activities taken together. The note with it: caspase-like and chymotrypsin-like activities. In kind it is biochemical, Xenopus laevis. From the text: The proteasome is required for the monoubiquitylation of xFANCD2 in cells. As curcumin has proteasome inhibiton activities, we tested whether EF24 inhibits xFANCD2-Ub by this mechanism. Two proteasome activities (caspase-like and chymotrypsin-like) along with xFANCD2-Ub status were monitored in activated Xenopus extracts treated with various compounds (Fig. 2A).
Proteasome activities and xFANCD2-Ub were monitored using fluorogenic probes and immunoblotting, respectively. IC50 values were determined for each compound using a range of concentrations and represented in histogram graphs. For MG132, numbers above caspase-like and chymotrypsin-like histograms indicate the actual IC50 values. A representative experiment is shown (out of 3 repeats).
Fluorogenic peptides (Proteasome Substrate Pack #PW9905) specific for the chymotrypsin-like and caspase-like activities of the proteasome were incubated in Xenopus extracts treated with serial dilutions of various compounds. Fluorescence emitted by proteasome cleavage of the peptides was monitored using a fluorometer (FluoStar Galaxy, BMG Labtech) with 380 nm and 460 nm excitation and emission filters, respectively. Experiments were repeated at least twice.

Assay [3] relates to xMRE11-P (MRE11 phosphorylation). In words: MRE11 phosphorylation in activated Xenopus extracts (immunoblot). In kind it is biochemical, Xenopus laevis. How it is done: as §1, §2, §3, §4
Assay [4] relates to IKK-2 (IKKβ) vs IKK-1 (IKKα). The note with it: cited from earlier work.
The subject of assay [5] is IKK (IκB-α stabilization). In words: IκB-α accumulation in Xenopus extracts as readout of IKK inhibition (immunoblot). The class given is biochemical, Xenopus laevis. The note with it: Xenopus extracts prepared without cycloheximide, Fig. 3A/3B. As for the experimental part: We tested whether EF24 inhibits IKK activity in Xenopus extracts by monitoring the accumulation of the IKK target, IκB-α (Fig. 3A). Because IκB-α phosphorylation by IKK leads to its degradation by the ubiquitin-proteasome pathway, inhibition of IKK results in the accumulation of IκB-α. For this experiment, we used extracts prepared without cycloheximide to allow for de novo translation of IκB-α.
Extracts treated as indicated were analyzed by immunoblot using xFANCD2, IκB-α and tubulin-α antibodies. IκB-α protein level was used as readout for monitoring IKK inhibition. […] Experiment was performed as in (A). The structure of BMS-345541 is shown. The star denotes a non-specific band used as loading control.

Assay [6] has as its system 334ATM WT cells. The assay is described as follows: Survival assay (MTS), ATM wild-type mouse kidney cells. The note with it: 72 hrs, read-out: cell survival IC50 WT. In kind it is cell-based.
Text: (§5) To test this possibility, we compared the effects of curcumin and EF24 in an ATM KO mouse kidney cell line (309ATM KO) and its isogenic, wild type counterpart (334ATM WT). As expected from ATM deficiency, 309ATM KO cells were more sensitive to ionizing irradiation than 334ATM WT (Additional File 1 - Fig. S3). We next treated these cell lines with various concentrations of EF24 and measured their survival after 72 hrs.
(§6) Figure 6 EF24 but not curcumin or DRB is more toxic to ATM-deficient mouse kidney cells than wild-type cells. A) 309ATM KO and 334ATM WT cells were treated with various concentrations of EF24. Cell viability was measured after 3 days by MTS assay. Each point represents the mean of 3 repeats. Error bars represent standard deviation. B) Similar experiment was performed using curcumin.
(§7) HSC72OT and HSC72OT+A cells were seeded at 5,000 per well in 96-well plates, and treated 24 hrs later with various concentrations of compounds or DMSO (1 μl in 100 μl medium). 309ATM KO and 334ATM WT cells were seeded at 7,000 per well and treated immediately. Cell survival was measured after 3 days using the CellTiter 96 AQueous One Solution Cell Proliferation Assay (Promega) following the recommendations from the manufacturer. All experiments were done in triplicate.
as §4

In assay [7] the test system is hFANCD2-Ub in HeLa cells. In words: hFANCD2 ubiquitylation assay in hydroxyurea-treated HeLa cells (immunoblot, densitometry). The class given is cell-based, human. The settings on record: Homo sapiens; HeLa cells co-treated with hydroxyurea; read-out: hFANCD2-Ub inhibition IC50. As for the experimental part:
We next determined whether EF24 could inhibit hFANCD2-Ub in human cells. Curcumin was tested in parallel to assess whether activity difference observed in extracts are mirrored in cells. HeLa cells were co-treated with increasing concentrations of compounds and hydroxyurea (HU), a standard method to stimulate hFANCD2-Ub (Fig. 4A, lanes 1-2, 7-8, [30]).
A) Hydroxyurea-induced FANCD2-Ub in HeLa cells is inhibited by EF24 at lower concentrations than curcumin. hFANCD2-Ub was monitored by immunoblot and densitometry analysis to determine IC50. B) Hydroxyurea-induced hFANCD2 foci formation is inhibited by EF24. hFANCD2 foci were detected by immunofluorescence and the percentage of cells with more than 5 foci was determined for each treatment. Histograms represent the average of 3 experiments. Error bars represent standard deviation.
hFANCD2 ubiquitylation assay and immunofluorescence assays in HeLa cells have been described elsewhere.
as §4

The test system of assay [8] is 309ATM KO cells. In words: Survival assay (MTS), ATM KO mouse kidney cells. In kind it is cell-based. The note with it: for sensitivity of 309ATM KO cells compared to 334ATM WT cells: 72 hrs survival, KO vs WT; for IC50: 309ATM KO cells, 72 hrs, MTS, read-out: cell survival IC50 KO.
Text: as §5, §6, §7, §4

Assay [9] has as its system proteasome. Also noted: method as in PMID 16982768. The note with it: cited from earlier work.
Assay [10] deals with ubiquitin isopeptidase/deubiquitinase (DUB). Also noted: method as in PMID 16982768. The note with it: cited from earlier work.

Molecules are shown by their SMILES. Like-named read-outs stand apart in the source and are kept apart here. Residues, ends and D or L forms follow the SMILES beside them. *: point of attachment. Cbz = O=C(OCc1ccccc1)* Some results are limits rather than exact numbers.

Take `O=C1/C(=C/c2ccccn2)COC/C1=C\c1ccccn1` [0822-3]: in [1], the “activity against xFANCD2-Ub in Xenopus extracts” value (“activity against xFANCD2-Ub” below) is “only weakly active”.

As to `O=C1/C(=C/c2ccccn2)CNC/C1=C\c1ccccn1` [EF31], the “fold less active than curcumin for proteasome inhibition” value in [2] amounted to 20 fold. In [1], the “activity against xFANCD2-Ub” value was “strong activity against xFANCD2-Ub”.

For the compound `NC1C/C(=C\c2ccccc2F)C(=O)/C(=C/c2ccccc2F)C1` (stereo not shown) [0810-117], the “proteasome inhibition” value in [2] was “weak inhibitory activities against both the proteasome and xFANCD2-Ub”. In assay [1], the “activity against xFANCD2-Ub” value is on record as “non-detectable levels”.

On to `O=C1/C(=C/c2cccc(F)c2)CNC/C1=C\c1cccc(F)c1` [AS153-4], for which, in assay [2], the “fold less active than curcumin for proteasome inhibition” value is reported as 20 fold. For the same compound, the “activity against xFANCD2-Ub” value in assay [1] is reported as “strong activity against xFANCD2-Ub”.

On to `O=C1/C(=C/c2ccc(F)cc2)CNC/C1=C\c1ccc(F)cc1` [AS153-5], for which, in assay [1], the “activity against xFANCD2-Ub” value is recorded as “much more potent than the corresponding thio-pyran analog”.

Regarding `O=C1/C(=C/c2ccccn2)CSC/C1=C\c1ccccn1` [0821-120A], the “activity against xFANCD2-Ub” value in assay [1] is given as “drops the activity only slightly”.

Consider `CC(C)(C)OC(=O)N1C/C(=C\c2ccccc2F)C(=O)/C(=C/c2ccccc2F)C1` [0616-104], for which the “activity against xFANCD2-Ub” value in [1] is reported as “non-detectable levels”.

Take `CC(C)C[C@@H](C=O)NC(=O)[C@H](CC(C)C)NC(=O)[C@H](CC(C)C)NC(=O)OCc1ccccc1` [MG132, reference compound] (Cbz-Leu-Leu-Leu-aldehyde): the “proteasome inhibition” value in [2] is listed as “efficiently inhibited both proteasome activities”. Also, the “activity against xFANCD2-Ub” value in [1] is reported as “only a weak activity on xFANCD2-Ub”.

In general, EC50 refers to the concentration that produces a half-maximal response. As for `Cc1ccc2nc(NCCN)c3ncc(C)n3c2c1` [BMS-345541, reference compound], the “effect on xMRE11 phosphorylation” value in [3] is given as “MRE11 phosphorylation was inhibited”. Besides, the “fold more active on IKK-2 (IKKβ) than on IKK-1 (IKKα)” value in assay [4] is 10 fold. Further, the EC50 in [1] (Xenopus extracts prepared without cycloheximide, Fig. 3A/3B, read-out: xFANCD2-Ub inhibition EC50) was 970 µM; in assay [5] it was 280 µM.

By IC50 is commonly meant the concentration at which inhibition is half-maximal. `COc1cc(/C=C/C(=O)CC(=O)/C=C/c2ccc(O)c(OC)c2)ccc1O` [curcumin]: the IC50 in assay [6] (Mus musculus) was 17 µM; in [7], 15 µM; in assay [1] it was greater than 2000 µM; in assay [8] (Mus musculus), 23 µM. Moreover, the “proteasome inhibition” value in [2] was “efficiently inhibited both proteasome activities”. The “activity against xFANCD2-Ub” value in [1] was “only a weak activity on xFANCD2-Ub”. Further, the “sensitivity of 309ATM KO cells compared to 334ATM WT cells” value in assay [8] was “slightly more resistant”.

For the compound `O=C1/C(=C/c2ccccc2F)COC/C1=C\c1ccccc1F` [AS153-2], in [1], the “activity against xFANCD2-Ub” value is listed as “undetectable levels”.

In the case of `CO[C@H]([C@H](O)CC(=O)[C@@H](C)[C@@H](O)CC[C@@H](C)[C@@H]1O[C@]2(CC[C@@H](C)[C@H](CC[C@H](C)C(C)=O)O2)CC[C@@H]1C)[C@H](OC(=O)C[C@@H](O)C1=C(C)C(=O)OC1=O)C(C)C` [tautomycin, reference compound], the “effect on xMRE11 phosphorylation” value in assay [3] was “accumulation of xMRE11-P”. In [1], the “activity against xFANCD2-Ub” value is “no detectable effect on xFANCD2-Ub”.

Regarding `OC[C@H]1O[C@@H](n2cnc3cc(Cl)c(Cl)cc32)[C@H](O)[C@@H]1O` [DRB, reference compound], the IC50 came to 60 µM in [6] and 56 µM in assay [8]. Besides, the “activity against xFANCD2-Ub” value in assay [1] is given as “no effect on the FA pathway in Xenopus extracts”.

Take `O=C1/C(=C/c2ccc([N+](=O)[O-])cc2)CS(=O)(=O)C/C1=C\c1ccc([N+](=O)[O-])cc1` [4H-TTD, 4H-Thiopyran-4-one, tetrahydro-3,5-bis [(4-nitrophenyl)methylene]-,1,1-dioxide]: the IC50 in assay [6] (Mus musculus) amounted to 0.5 µM; in [7], 0.12 µM; in [1], 250 µM; in assay [8] (Mus musculus), 0.18 µM. Also, the proteasome activity entry in assay [9] was “did not inhibit proteasome activity”. The “ubiquitin isopeptidase/deubiquitinase (DUB) inhibition” value in assay [10] is on record as “exhibited ubiquitin isopeptidase/deubiquitinase (DUB) inhibition activity”. In addition, the “overall cell toxicity concentration relative to EF24” value in assay [8] (309ATM KO and 334ATM WT survival assay) was “about 10 times”. Moreover, in [8], the “sensitivity of 309ATM KO cells compared to 334ATM WT cells” value was 3 fold.

The values are drawn from PMC2807854, “Monoketone analogs of curcumin, a new class of Fanconi anemia pathway inhibitors” (Molecular Cancer, 2009).
